Where a name gives a salt, the structure may show the parent alone. Square brackets hold non-standard residues; d marks the D form. Peptide text beside a SMILES is read from it. pGlu = O=C1CC[C@@H](C(=O)O)N1
What was measured:
Long Evans rats = test: Active Allothetic Place Avoidance test (AAPA), MK-801 model; format: in vivo; conditions: for MK-801 (0.15 mg/kg) induced cognitive memory impairment effects: peptide 2 mg/kg administered subchronically + MK-801 0.15 mg/kg, summary statement; for reversal of MK-801 increased locomotion (total distance (m) moved) / reversal of MK-801 decreased maximum time of avoidance (s) / reversal of MK-801 increased number of entries to the shock sector / reversal of MK-801 increased number of shocks: peptide 2 mg/kg i.p. + MK-801 0.15 mg/kg i.p., compared to MK-801 alone; for reversal of MK-801 increased locomotion (total distance (m) moved): 4 days (subchronically)
Experimental: 3-4 month-old male rats of the Long Evans strain were used for the Active Allothetic Place Avoidance test and were obtained from the accredited breeding colony of the Institute of Physiology, Academy of Science, Prague. Rats were acclimatised for 7-10 days prior to testing, during which they were weighed twice and handled four times. Rats were housed in pairs in transparent plastic cages (30×30×40 cm) in an air-conditioned animal room with a constant temperature of 21 °C and with 12/12 light/dark cycle (lights on at 7:00). All animals received food and water ad libitum. All experiments respected the Guidelines of the European Union (86/609/EU) and the National Committee for the Care and Use of Laboratory Animals (Czech Republic) and were approved by the committee under the number: MEYSCR-27527/2012-31.
In the Active Allothetic Place Avoidance test, Long Evans rats were treated with Ani-AKH (1 and 2 mg/kg) (n=8), Lia-AKH (1 and 2 mg/kg) (n=8), Pht-HrTH (1 and 2 mg/kg) (n=8), MK-801 (0.15 mg/kg) (n=8), Ani-AKH (2 mg/kg)+MK-801 (0.15 mg/kg) (n=8), Lia-AKH (2 mg/kg)+MK-801 (0.15 mg/kg) (n=8), Pht-HrTH (2 mg/kg)+MK-801 (0.15 mg/kg) (n=8) or vehicle (control group=saline with 15% DMSO) (n= 8) for 4 days (subchronically). Ani-AKH, Lia-AKH and Pht-HrTH were administered intraperitoneally (i.p.) 60 min. before the Active Allothetic Place Avoidance test while MK-801 was administered (i.p.) 40 min. before the test in a volume of 2ml/kg body weight. Separate group of animals were used in each test. The doses of the drugs were chosen according to the previous studies (Mutlu et al. 2016).
(+)-MK-801 maleate ((5S,10R)-(+)-5-methyl-10,11-dihydro-5H-dibenzo(a, d)-cyclo-hepten-5,10-imine maleate) was obtained from Tocris Bioscience, United Kingdom. Anax imperator AKH (Ani-AKH), Libellula auripennis AKH (Lia-AKH) and Phormia-Terra hypertrehalosemic hormone (Pht-HrTH) were purchased from TRC (Toronto/Canada). MK-801 was dissolved in saline while AKH was dissolved in saline mixed with 15% DMSO. Saline with 15% DMSO was used as control group.
The Active Allothetic Place Avoidance Test is a spatial memory test that can determine the ability of animals to organize their behavior efficiently in both normal and pathological conditions. Successful performance in the test requires the rat to solve a conflict between two discordant subsets of spatial stimuli (extramaze and intramaze cues). It is believed that successful performance in the Active Allothetic Place Avoidance Test, where the rat has to differentiate between relevant and irrelevant stimuli, depends on the mode of information processing disturbed in schizophrenic patients (Bubenikova-Valesova et al., 2008b). The Active Allothetic Place Avoidance arena was described in detail in previous papers (Cimadevilla et al., 2001). Briefly, it consisted of a smooth metallic circular arena (82 cm in diameter), enclosed by a 30 cm high transparent Plexiglas wall. The arena was elevated 1 m above the floor of 4×5 m experimental room containing an abundance of extramaze landmarks. The arena together with the wall was rotated (1 rpm) by an electric motor placed underneath the arena disc. At the beginning of each training session, a rat was placed in the arena at a location opposite an imperceptible 60° to-be- avoided sector (shock sector), which was defined by the computer- based tracking system (iTrack, Biosignal Group, USA), located in an adjacent room. The arena rotation started immediately after placement of the rat. The location of the shock sector could be determined solely by its spatial relation to the distal orienting cues located in the room. Rats were wearing a light latex harness, to which an infrared light-emitting diode (LED) was attached between the rat's shoulders. Whenever the rat entered the to-be-avoided sector for more than 500 ms (millisecond), the tracking system delivered a mild, constant-current shock (50 Hz, 0.5 s, 0.4-0.7 mA) and counted an entrance. […]

[1] = test system: Emperor dragonfly, Anax imperator; conditions: low concentrations of the synthetic peptide injected into the Emperor dragonfly; cited from earlier work
[2] = MK-801 0.15 mg/kg i.p. alone, 4 days, compared to control

Row | SMILES | MK-801 (0.15 mg/kg) induced cognitive memory impairment effects (Long Evans rats) | reversal of MK-801 increased locomotion (total distance (m) moved) (Long Evans rats) | reversal of MK-801 decreased maximum time of avoidance (s) (Long Evans rats; 4 days) | reversal of MK-801 increased number of entries to the shock sector (Long Evans rats; 4 days) | reversal of MK-801 increased number of shocks (Long Evans rats; 4 days) | haemolymph lipid concentration [1] | locomotion (total distance (m) moved) (Long Evans rats; [2]) | maximum time of avoidance (s) (Long Evans rats; [2]) | number of entries to the shock sector (Long Evans rats; [2]) | number of shocks (Long Evans rats; [2])
1 | CC(C)[C@H](NC(=O)[C@@H]1CCC(=O)N1)C(=O)N[C@@H](CC(N)=O)C(=O)N[C@@H](Cc1ccccc1)C(=O)N[C@H](C(=O)N1CCC[C@H]1C(=O)N[C@@H](CO)C(=O)N[C@@H](Cc1c[nH]c2ccccc12)C(N)=O)[C@@H](C)O [Lia-AKH, 5-oxo-L-prolyl-L-valyl-L-asparaginyl-L-phenylalanyl-L-threonyl-L-prolyl-L-seryl-L-Tryptophanamide] ([pGlu]VNFTPSW-NH2) | reverse | partial effect | significantly reversed this effect | significantly reversed this effect | significantly reversed this effect | – | – | – | – | –
2 | CC(C)[C@H](NC(=O)[C@@H]1CCC(=O)N1)C(=O)N[C@@H](CC(N)=O)C(=O)N[C@@H](Cc1ccccc1)C(=O)N[C@@H](CO)C(=O)N1CCC[C@H]1C(=O)N[C@@H](CO)C(=O)N[C@@H](Cc1c[nH]c2ccccc12)C(N)=O [Ani-AKH, 5-oxo-L-prolyl-L-valyl-L-asparaginyl-L-phenylalanyl-L-seryl-L-prolyl-L-seryl-L-Tryptophanamide] ([pGlu]VNFSPSW-NH2) | reverse | significantly reversed | significantly reversed this effect | significantly reversed this effect | significantly reversed this effect | increased the haemolymph lipid concentration | – | – | – | –
3 | C[C@]12N[C@H](Cc3ccccc31)c1ccccc12 [MK-801, (5S,10R)-(+)-5-methyl-10,11-dihydro-5H-dibenzo(a, d)-cyclo-hepten-5,10-imine maleate] | – | – | – | – | – | – | significantly increased locomotion | significantly decreased maximum time of avoidance | significantly increased number of entries | significantly increased number of shocks
4 | CC(C)C[C@H](NC(=O)[C@@H]1CCC(=O)N1)C(=O)N[C@H](C(=O)N[C@@H](Cc1ccccc1)C(=O)N[C@@H](CO)C(=O)N1CCC[C@H]1C(=O)N[C@@H](CC(=O)O)C(=O)N[C@@H](Cc1c[nH]c2ccccc12)C(N)=O)[C@@H](C)O [Pht-HrTH, 5-oxo-L-prolyl-L-leucyl-L-threonyl-L-phenylalanyl-L-seryl-L-prolyl-L-alfa-aspartyl-L-Tryptophanamide] ([pGlu]LTFSPDW-NH2) | reverse | no reversing effect | significantly reversed this effect | significantly reversed this effect | significantly reversed this effect | – | – | – | – | –

— patent EP3446753B1, “NEW THERAPEUTIC USES OF PEPTIDES OF THE ADIPOKINETIC HORMONE FAMILY” (Mutlu, Oguz, priority 2017, dated 2019)
